Tests used:
[1] = tested on: elastase production by P. aeruginosa PAO1; assay: Elastase assay of culture supernatants (EnzChek Elastase Assay Kit); type: cell-based; conditions: 50 and 100 μM, 2 h cultivation
Procedure: Elastase Assay. P. aeruginosa PAO1 wild-type and an elastase negative lasI rhlI mutant were cultivated in LB medium overnight at 37° C. with shaking. Overnight cultures were 1:100 diluted to 5 ml ABTGC medium and incubator at 37° C. with shaking. Compound G1 was supplemented into the PAO1 cultures at final concentrations of 0, 50, 100 μM respectively. After 2 h incubation, 0.8 mL culture supernatants were sampled by centrifugation (18000 g, 4 min) and filtration through 0.2 micron filters. Elastase activity of P. aeruginosa culture supernatants was measured by using The EnzChekElastase Assay Kit (Invitrogen), which uses BODIPY-FL-labeled DQ elastin conjugate as the substrate of elastase. The BODIPY-FL-labeled DQ elastins conjugate when cleaved by elastase enzyme, yields highly fluorescent fragments. Fluorescence was recorded every 6 min for 180 min by using a Tecan Infinite 200 Pro plate reader (excitation at 490 nm, emission at 520 nm).

[2] = tested on: LasR-controlled GFP expression in P. aeruginosa PAO1 lasB-gfp(ASV) strain; assay: P. aeruginosa QS inhibition assay with lasB-gfp(ASV) reporter strain; type: cell-based, Pseudomonas aeruginosa
Procedure: P. aeruginosa QS inhibition assays. Test compounds were dissolved in 100% DMSO and mixed with ABTGC media, after which they were added to the first column of wells of a 96-well microtitre plate (Nunc) to give a final concentration of 100 μM in a final volume of 200 μl. 100 μL of ABTGC media was then added to the remaining wells in the plate and serial two-fold dilutions of the inhibitors were done by adding 100 μL of the preceding inhibitor-containing well to the subsequent one. The final column was left without inhibitor as a control. Next, an overnight culture of P. aeruginosa lasB-gfp(ASV) strain, grown in LB medium at 37° C. with shaking, was diluted to an optical density (OD) at 600 nm of 0.2, and 100 μl of bacterial suspension was added to each well of the microtitre plate. […] The microtitre plate was incubated at 37° C. in a Tecan Infinite 200 Pro plate reader (Tecan Group Ltd., Männedorf, Switzerland). GFP fluorescence (excitation at 485 nm, emission at 535 nm) and cell density (OD600) measurements were collected at 15 min intervals for at least 14 h. The P. aeruginosa Rhl and Pqs inhibition assays were performed in a similar manner to the LasR inhibition assay.
Inhibition Assay with the P. aeruginosa lasB-gfp(ASV) strain. In the preliminary screen, the 22 selected QSI candidates were screened for their ability to inhibit QS-controlled green fluorescent protein (GFP) expression in the P. aeruginosa lasB-gfp(ASV) strain. Elastase (encoded by the lasB gene) is a virulence factor that is controlled by LasR and therefore a good indicator for LasR activity. […] For ease of identification, each compound was designated a short compound identification code based on its well position in the shipment in place of its standard IUPAC name.
The dose-response curves of these 5 QSI candidates when incubated with the P. aeruginosa PAO1 lasB-gfp(ASV) strain are shown in FIG. 3. GFP expression, which was measured in relative fluorescence units, was normalized by dividing the GFP value by the corresponding OD600 value measured at that time-point. ‘Control’ refers to the PAO1 strain grown without the presence of QSI, and as expected, it had the highest GFP per OD values. For these five compounds, dose-dependent inhibition of lasB-gfp expression was observed, i.e. the higher the concentration of QSI that was present, the greater the inhibition of gfp expression.
IC50 Value Comparisons of the Five QSI Candidates. The slope of the curve for each QSI was calculated based on its respective dose-response curves (from FIG. 3) and plotted against the log inhibitor concentration. The slope is indicative of the biosynthesis rate of GFP due to AHL induction. The half maximal inhibitory concentrations (IC50) of the five QSI candidates were calculated using the Graphpad Prism 6 software package (GraphPad Software Inc., CA, USA).

pqsA-gfp(ASV) expression = assay: Inhibition of the PQS QS system, pqsA-gfp(ASV) reporter in PAO1 wild-type and lasR mutant; type: cell-based, P. aeruginosa
Procedure: Inhibition of the Rhl and PQS QS systems in wild-type PAO1 and PAO1 lasR mutant. Wild-type P. aeruginosa PAO1 strains harboring either the rhlA-gfp(ASV) reporter or the pqsA-gfp(ASV) reporter, and a P. aeruginosa PAO1 lasR mutant harboring either the rhlA-gfp(ASV) reporter or the pqsA-gfp(ASV) reporter were used for this experiment (Refer to FIG. 11 for strain information). Overnight cultures of these four strains were diluted 100-fold in ABTGC media within 96-well microtitre plates to a final volume of 200 μL per well. Each of the five QSIs was added in triplicate to a final concentration of 50 μM. 0.5% DMSO was used as a negative control. The microtitre plate was incubated at 37° C. in a Tecan Infinite 200 Pro plate reader where GFP and OD600 readings were measured at 15 min intervals.
Effect of QSIs on Rhl and Pqs Quorum-Sensing Systems. In order to address the problem of the specificity of present compounds, the five identified QSI compounds were tested to see if they had any effect on the rhl and pqs systems. The five QSIs were tested against a PAO1 wild-type and a PAO1 lasR mutant harboring either the rhlA-gfp (ASV) bioreporter or the pqsA-gfp (ASV) bioreporter. The rhlA system is dependent on the RhlR/I system. By doing so, we were able to determine if a QSI is able to inhibit the other two QS systems (i.e. rhl and pqs) in a lasR-dependent/independent manner (FIG. 8).

[3] = tested on: P. aeruginosa PAO1 biofilms; assay: Glass slide biofilm assay for observation of eDNA release; type: cell-based; conditions: ABTG medium containing 25 μM G1, 24 h, PI staining
Procedure: Glass Slide Biofilm Assay for Observation of eDNA Release. The glass slide biofilm assay was performed (Liu et al. 2010 Synergistic activities of an efflux pump inhibitor and iron chelators against Pseudomonas aeruginosa growth and biofilm formation. Antimicrob Agents Chemother 54:3960-3963). Briefly, gfp-tagged P. aeruginosa PAO1 biofilms were cultivated in 50 ml BD falcon tubes containing 15 ml ABTG medium. A sterile 24 mm×60 mm glass cover slide was inserted into each falcon tube for supporting biofilm growth. G1 (10 μm) was added into the biofilm medium to examine its impact on P. aeruginosa PAO1 biofilm formation. DMSO was added alone to the medium as control. Biofilms were incubated at 37° C. without shaking. 2 μM propidium iodide (Sigma-Aldrich) was added to biofilm cultures to stain extracellular DNA for 5 min after 24-hour growth. After that, biofilm attached glass slides were observed by confocal laser scanning microscopy (CLSM).

N=c1[nH]c(=O)c2nn[nH]c2[nH]1 [Compound G1, 5-imino-4,6-dihydro-3H-1,2,3-triazolo[5,4-d]pyrimidin-7-one]
elastase production (elastase activity of culture supernatants) [1]: almost abolish elastase production | IC50 of lasB-gfp expression, range in words ([2]; P. aeruginosa PAO1 lasB-gfp(ASV)): high nanomolar range | effect on cell growth ([2]; P. aeruginosa lasB-gfp(ASV) strain, OD600): without affecting cell growth | inhibition of LasR-controlled GFP expression ([2]; P. aeruginosa lasB-gfp(ASV) strain, 0.78125-50 μM): inhibit LasR-controlled GFP expression in a dose-dependent manner | IC50 ([2]; Pseudomonas aeruginosa, PAO1, read-out: IC50 of lasB-gfp expression): 640 nM | inhibition of pqsA-gfp expression (pqsA-gfp(ASV) expression; PAO1 lasR mutant, 50 μM QSI): 24.4% | inhibition of pqsA-gfp expression (pqsA-gfp(ASV) expression; wild-type PAO1, 50 μM QSI): 57.5% | extracellular DNA (eDNA) in biofilms [3]: less eDNA was observed
